In patent US12194124B2, “Personal care compositions for treating odor causing bacteria and methods for the same” (Colgate-Palmolive Company, priority 2019, dated 2025):

Tested on: S. Haemolyticus
Assay: Growth inhibition assay in 96-well plate, optical density of S. Haemolyticus
Type: cell-based, Staphylococcus haemolyticus
Experimental: The efficacy of 2-butyl octanol for selectively promoting, inhibiting, reducing, and/or treating bacterial growth was evaluated. Particularly, the efficacy of 2-butyl octanol for selectively promoting, inhibiting, reducing, and/or treating bacterial growth of Corynebacterium and Staphylococcus was evaluated. To evaluate the efficacy, an active solution was prepared by emulsifying 2-butyl octanol with a nonionic surfactant, namely, Polysorbate 80. The active solution included the 2-butyl octanol and the Polysorbate 80 in a ratio of about 83:17. Both positive controls (including no active solution) and negative controls (including no bacteria) were also prepared.
A 96-well plate was utilized to evaluate the growth of the respective bacteria at varying dilutions. Each of the wells of a 96-well plate was aseptically filled with about 100 μL of Tryptic Soy Broth (TSB). In the first well of each row, about 100 μL of either the active solution (including the 2-butyl octanol and Polysorbate 80) or the desired solvent for the respective positive and negative controls was added to thereby provide a total of about 200 μL in the first well of the each respective row. A multi-channel pipette was then utilized to prepare a two-fold dilution in each column. Specifically, a multi-channel pipette set to about 100 μL was utilized to mix and transfer about 100 μL of the 200 μL from the wells of the first column to the respective wells of a subsequent column. This was repeated for each of the remaining eleven columns. About 100 μL of the twelfth column was removed, thereby leaving about 100 μL in each of the 96 wells. […] Specifically, a phosphate buffered saline (PBS) was utilized for the negative control. About 100 μL of the respective bacteria adjusted to 0.1 optical density (OD) bacteria was added to all other wells. The well plate was then incubated overnight at about 37° C. in a growth inhibition assay machine. Measurements were taken at about one hour increments.

With CCCCCCC(CO)CCCC (stereo not shown) [2-butyl octanol, 2-butyl-1-octanol] the “Measured Optical Density of S. Haemolyticus” value (“Measured Optical Density” below) (0.02% 2-Butyl Octanol, 1 Hour) was 0.017, the “Measured Optical Density” value (0.02% 2-Butyl Octanol, 2 Hour) was 0.129 and the “Measured Optical Density” value (0.02% 2-Butyl Octanol, 3 Hour) was 0.203. For the same compound, the “Measured Optical Density” value (0.02% 2-Butyl Octanol, 4 Hour) was 0.218, the “Measured Optical Density” value (0.02% 2-Butyl Octanol, 5 Hour) was 0.272 and the “Measured Optical Density” value (0.02% 2-Butyl Octanol, 6 Hour) was 0.34. The “Measured Optical Density” value (0.02% 2-Butyl Octanol, 7 Hour) was 0.426, the “Measured Optical Density” value (0.02% 2-Butyl Octanol, 8 Hour) was 0.503 and the “Measured Optical Density” value (0.02% 2-Butyl Octanol, 9 Hour) was 0.558. For the same compound, the “Measured Optical Density” value (0.02% 2-Butyl Octanol, 10 Hour) was 0.616, the “Measured Optical Density” value (0.02% 2-Butyl Octanol, 11 Hour) was 0.649 and the “Measured Optical Density” value (0.02% 2-Butyl Octanol, 12 Hour) was 0.671. For the same compound, the “Measured Optical Density” value (0.02% 2-Butyl Octanol, 13 Hour) was 0.702, the “Measured Optical Density” value (0.02% 2-Butyl Octanol, 14 Hour) was 0.719 and the “Measured Optical Density” value (0.02% 2-Butyl Octanol, 15 Hour) was 0.724. For the same compound, the “Measured Optical Density” value (0.02% 2-Butyl Octanol, 16 Hour) was 0.735, the “Measured Optical Density” value (0.02% 2-Butyl Octanol, 17 Hour) was 0.748 and the “Measured Optical Density” value (0.02% 2-Butyl Octanol, 18 Hour) was 0.751. The “Measured Optical Density” value (0.04% 2-Butyl Octanol, 1 Hour) was 0.026, the “Measured Optical Density” value (0.04% 2-Butyl Octanol, 2 Hour) was 0.153 and the “Measured Optical Density” value (0.04% 2-Butyl Octanol, 3 Hour) was 0.237. For the same compound, the “Measured Optical Density” value (0.04% 2-Butyl Octanol, 4 Hour) was 0.247, the “Measured Optical Density” value (0.04% 2-Butyl Octanol, 5 Hour) was 0.286 and the “Measured Optical Density” value (0.04% 2-Butyl Octanol, 6 Hour) was 0.328. For the same compound, the “Measured Optical Density” value (0.04% 2-Butyl Octanol, 7 Hour) was 0.389, the “Measured Optical Density” value (0.04% 2-Butyl Octanol, 8 Hour) was 0.453 and the “Measured Optical Density” value (0.04% 2-Butyl Octanol, 9 Hour) was 0.514. The “Measured Optical Density” value (0.04% 2-Butyl Octanol, 10 Hour) was 0.56, the “Measured Optical Density” value (0.04% 2-Butyl Octanol, 11 Hour) was 0.596 and the “Measured Optical Density” value (0.04% 2-Butyl Octanol, 12 Hour) was 0.619. For the same compound, the “Measured Optical Density” value (0.04% 2-Butyl Octanol, 13 Hour) was 0.624, the “Measured Optical Density” value (0.04% 2-Butyl Octanol, 14 Hour) was 0.635 and the “Measured Optical Density” value (0.04% 2-Butyl Octanol, 15 Hour) was 0.656. The “Measured Optical Density” value (0.04% 2-Butyl Octanol, 16 Hour) was 0.657, the “Measured Optical Density” value (0.04% 2-Butyl Octanol, 17 Hour) was 0.671 and the “Measured Optical Density” value (0.04% 2-Butyl Octanol, 18 Hour) was 0.676. The “Measured Optical Density” value (0.08% 2-Butyl Octanol, 1 Hour) was 0.039, the “Measured Optical Density” value (0.08% 2-Butyl Octanol, 2 Hour) was 0.205 and the “Measured Optical Density” value (0.08% 2-Butyl Octanol, 3 Hour) was 0.308. The “Measured Optical Density” value (0.08% 2-Butyl Octanol, 4 Hour) was 0.317, the “Measured Optical Density” value (0.08% 2-Butyl Octanol, 5 Hour) was 0.355 and the “Measured Optical Density” value (0.08% 2-Butyl Octanol, 6 Hour) was 0.401. For the same compound, the “Measured Optical Density” value (0.08% 2-Butyl Octanol, 7 Hour) was 0.462, the “Measured Optical Density” value (0.08% 2-Butyl Octanol, 8 Hour) was 0.53 and the “Measured Optical Density” value (0.08% 2-Butyl Octanol, 9 Hour) was 0.58. The “Measured Optical Density” value (0.08% 2-Butyl Octanol, 10 Hour) was 0.614, the “Measured Optical Density” value (0.08% 2-Butyl Octanol, 11 Hour) was 0.637 and the “Measured Optical Density” value (0.08% 2-Butyl Octanol, 12 Hour) was 0.647. The “Measured Optical Density” value (0.08% 2-Butyl Octanol, 13 Hour) was 0.673, the “Measured Optical Density” value (0.08% 2-Butyl Octanol, 14 Hour) was 0.683 and the “Measured Optical Density” value (0.08% 2-Butyl Octanol, 15 Hour) was 0.693. For the same compound, the “Measured Optical Density” value (0.08% 2-Butyl Octanol, 16 Hour) was 0.708, the “Measured Optical Density” value (0.08% 2-Butyl Octanol, 17 Hour) was 0.733 and the “Measured Optical Density” value (0.08% 2-Butyl Octanol, 18 Hour) was 0.744. For the same compound, the “Measured Optical Density” value (0.16% 2-Butyl Octanol, 1 Hour) was 0.049, the “Measured Optical Density” value (0.16% 2-Butyl Octanol, 2 Hour) was 0.175 and the “Measured Optical Density” value (0.16% 2-Butyl Octanol, 3 Hour) was 0.26. The “Measured Optical Density” value (0.16% 2-Butyl Octanol, 4 Hour) was 0.285, the “Measured Optical Density” value (0.16% 2-Butyl Octanol, 5 Hour) was 0.326 and the “Measured Optical Density” value (0.16% 2-Butyl Octanol, 6 Hour) was 0.39. For the same compound, the “Measured Optical Density” value (0.16% 2-Butyl Octanol, 7 Hour) was 0.464, the “Measured Optical Density” value (0.16% 2-Butyl Octanol, 8 Hour) was 0.524 and the “Measured Optical Density” value (0.16% 2-Butyl Octanol, 9 Hour) was 0.579. The “Measured Optical Density” value (0.16% 2-Butyl Octanol, 10 Hour) was 0.627, the “Measured Optical Density” value (0.16% 2-Butyl Octanol, 11 Hour) was 0.66 and the “Measured Optical Density” value (0.16% 2-Butyl Octanol, 12 Hour) was 0.684. The “Measured Optical Density” value (0.16% 2-Butyl Octanol, 13 Hour) was 0.71, the “Measured Optical Density” value (0.16% 2-Butyl Octanol, 14 Hour) was 0.719 and the “Measured Optical Density” value (0.16% 2-Butyl Octanol, 15 Hour) was 0.724. For the same compound, the “Measured Optical Density” value (0.16% 2-Butyl Octanol, 16 Hour) was 0.74, the “Measured Optical Density” value (0.16% 2-Butyl Octanol, 17 Hour) was 0.756 and the “Measured Optical Density” value (0.16% 2-Butyl Octanol, 18 Hour) was 0.77. For the same compound, the “growth of S. hominis” value (2-butyl octanol about 0.02 weight % to about 5.2 weight %) was “did not inhibit the growth of and/or promoted the growth of”, the “Measured Optical Density” value (5.2% 2-Butyl Octanol, 1 Hour) was 0.198 and the “Measured Optical Density” value (5.2% 2-Butyl Octanol, 2 Hour) was 0.254. For the same compound, the “Measured Optical Density” value (5.2% 2-Butyl Octanol, 3 Hour) was 0.345, the “Measured Optical Density” value (5.2% 2-Butyl Octanol, 4 Hour) was 0.383 and the “Measured Optical Density” value (5.2% 2-Butyl Octanol, 5 Hour) was 0.396. The “Measured Optical Density” value (5.2% 2-Butyl Octanol, 6 Hour) was 0.384, the “Measured Optical Density” value (5.2% 2-Butyl Octanol, 7 Hour) was 0.403 and the “Measured Optical Density” value (5.2% 2-Butyl Octanol, 8 Hour) was 0.477. The “Measured Optical Density” value (5.2% 2-Butyl Octanol, 9 Hour) was 0.549, the “Measured Optical Density” value (5.2% 2-Butyl Octanol, 10 Hour) was 0.603 and the “Measured Optical Density” value (5.2% 2-Butyl Octanol, 11 Hour) was 0.622. The “Measured Optical Density” value (5.2% 2-Butyl Octanol, 12 Hour) was 0.639, the “Measured Optical Density” value (5.2% 2-Butyl Octanol, 13 Hour) was 0.654 and the “Measured Optical Density” value (5.2% 2-Butyl Octanol, 14 Hour) was 0.681. The “Measured Optical Density” value (5.2% 2-Butyl Octanol, 15 Hour) was 0.699, the “Measured Optical Density” value (5.2% 2-Butyl Octanol, 16 Hour) was 0.722 and the “Measured Optical Density” value (5.2% 2-Butyl Octanol, 17 Hour) was 0.742. For the same compound, the “Measured Optical Density” value (5.2% 2-Butyl Octanol, 18 Hour) was 0.752.
